# Results published in patent US20160376240A1, “6 Phenyl or 6 Pyridin 3 YL Indazole Derivatives and Methods of Use” (ABBVIE INC., priority 2014, published 2016).
# Target: T1, TrkA (Homo sapiens, UniProt P04629)
# T1 construct: purchased Invitrogen PV3144
# Experiment: TrkA kinase inhibition, HTRF assay
# Format: biochemical
# Conditions: LCK peptide substrate 125 nM, TrkA 2-10 nM pre-incubated with ATP 200 μM
# Description: TrkA, TrkB, and TrkC enzymes were obtained from Invitrogen (as catalog numbers PV3144, PV3616, and PV3617, respectively). The ability of a compound to inhibit the enzymatic activity of the TrkA, TrkB, and TrkC enzymes was determined in separate assays. Enzyme activity was measured in an HTRF® (homogeneous time resolved fluorescence) assay, which detects enzymatic phosphorylation of a biotinylated synthetic peptide substrate (an LCK peptide analog, biotin-ahx-GAEEEIYAAFFA, from Genemed Synthesis). Phosphorylation is assessed by HTRF® in the presence of an anti-phosphotyrosine antibody conjugated to Eu^3+ cryptate (Cisbio) as donor fluorophore, and streptavidin conjugated to allophycocyanin (ProZyme) as acceptor fluorophore. The HTRF® signal was detected at two different wavelengths (620 nm and 665 nm) which were used to calculate the fluorescence ratio.
# Each enzyme was titrated to a concentration optimized to ensure accurate measurement of the initial reaction rate. To allow the Trk enzymes to undergo activation and auto-phosphorylation, a 20 minute pre-incubation with ATP was carried out (at twice the final targeted enzyme and ATP concentration) prior to addition of test compound and the peptide substrate.
# TrkA in vitro assays were performed by pre-incubating TrkA (2-10 nM) with ATP (200 μM) for 20 minutes at ambient temperature in 50 mM HEPES pH 7.4, 10 mM MgCl2, 2 mM MnCl2, 100 μM Na3VO4, 1 mM dithiothreitol, 0.01% BSA (bovine serum albumin). Then, to the activated Trk enzyme mixture was added the test compound in 2% dimethyl sulfoxide. After 10 minutes, the peptide substrate (125 nM) was added. After 1 hour, enzyme reactions were terminated by addition of equal reaction volumes of detection/stop reagent (containing 0.2 μg/mL anti-phosphotyrosine monoclonal antibody labeled with europium from Cisbio (catalog# PT66-K), and 4 μg/mL PhycoLink® Streptavidin-Allophycocyanin conjugate from ProZyme (catalog# PJ25S) in 60 mM EDTA in 40 mM HEPES pH 7.4, 480 mM KF, 0.01% Tween® 20 and 0.1% BSA bovine serum albumin) Reaction plates were stored at 4° C. overnight before reading the fluorescence ratio signal on a PerkinElmer EnVision™ fluorescence detector. Individual reaction wells were stopped at time points to obtain reaction rates. The test inhibitor compounds were assayed in duplicate, at half-log serial dilutions over a range of concentrations (e.g. starting at 50 μM or 5 μM as the high compound concentration). The percent Trk enzyme inhibition was calculated from the initial rates of the inhibited reactions relative to the uninhibited control. IC50 values were calculated by fitting the inhibition percent to the concentration of inhibitor [I] in the assay in equation 1 below, to solve for the IC50.
# Inhibition %=100[I]/([I]+[IC50]) equation 1
# T1 sequence (P04629 33-796): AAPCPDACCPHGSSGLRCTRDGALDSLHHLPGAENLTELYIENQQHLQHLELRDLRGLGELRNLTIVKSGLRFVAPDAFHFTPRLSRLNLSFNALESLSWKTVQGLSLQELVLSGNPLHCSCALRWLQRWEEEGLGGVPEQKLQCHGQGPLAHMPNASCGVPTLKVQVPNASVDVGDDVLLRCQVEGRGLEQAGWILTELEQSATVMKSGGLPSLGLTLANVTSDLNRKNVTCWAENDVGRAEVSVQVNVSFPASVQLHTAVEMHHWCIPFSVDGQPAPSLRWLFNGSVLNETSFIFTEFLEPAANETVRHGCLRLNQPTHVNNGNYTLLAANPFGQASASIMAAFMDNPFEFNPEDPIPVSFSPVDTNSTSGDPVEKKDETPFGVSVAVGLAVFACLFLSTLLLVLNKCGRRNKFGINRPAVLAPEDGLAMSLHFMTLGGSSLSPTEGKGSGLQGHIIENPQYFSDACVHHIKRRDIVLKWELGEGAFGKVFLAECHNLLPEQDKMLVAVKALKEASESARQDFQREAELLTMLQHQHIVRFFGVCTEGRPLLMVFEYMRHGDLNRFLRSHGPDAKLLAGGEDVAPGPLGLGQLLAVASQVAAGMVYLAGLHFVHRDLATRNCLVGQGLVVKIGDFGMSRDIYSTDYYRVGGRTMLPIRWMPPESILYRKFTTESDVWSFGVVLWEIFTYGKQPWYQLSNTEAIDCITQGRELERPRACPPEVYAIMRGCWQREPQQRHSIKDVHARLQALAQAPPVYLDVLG
row,SMILES,IC50
1,"CC(=O)Nc1ccc(-c2cc(OC3CCOCC3)c3c(C)n[nH]c3c2)cc1N1CCN(C(=O)C2CCC2)CC1 [Example 144, N-{2-[4-(cyclobutylcarbonyl)piperazin-1-yl]-4-[3-methyl-4-(tetrahydro-2H-pyran-4-yloxy)-1H-indazol-6-yl]phenyl}acetamide]",25.4 nM
2,"CNC(=O)c1ccc(-c2cc(O[C@@H](C)C(F)(F)F)c3c(N)n[nH]c3c2)cc1N1CCN(C2CCC2)CC1 [Example 42, 4-(3-amino-4-{[(2S)-1,1,1-trifluoropropan-2-yl]oxy}-1H-indazol-6-yl)-2-(4-cyclobutylpiperazin-1-yl)-N-methylbenzamide]",422 nM
3,"CNC(=O)c1ccc(-c2cc(OC(C)C(F)(F)F)c3c(N)n[nH]c3c2)cc1N1CCN(c2ccccc2)CC1 (centres unmarked) [Example 33, 4-{3-amino-4-[(1,1,1-trifluoropropan-2-yl)oxy]-1H-indazol-6-yl}-N-methyl-2-(4-phenylpiperazin-1-yl)benzamide]",28 nM
4,"CC(=O)c1ccc(-c2cc(OC3CCOCC3)c3c(N)n[nH]c3c2)cc1N1CCN(c2ncccn2)CC1 [Example 15, 1-{4-[3-amino-4-(tetrahydro-2H-pyran-4-yloxy)-1H-indazol-6-yl]-2-[4-(pyrimidin-2-yl)piperazin-1-yl]phenyl}ethanone]",9.59 nM
5,"NC(=O)c1ccc(-c2cc(OC3CCCC3)c3c(N)n[nH]c3c2)cc1N1CCC(c2ccccc2)CC1 [Example 76, 4-[3-amino-4-(cyclopentyloxy)-1H-indazol-6-yl]-2-(4-phenylpiperidin-1-yl)benzamide]",24.5 nM
6,"CNC(=O)c1ccc(-c2cc(OC3CCOCC3)c3c(C)n[nH]c3c2)cc1N1CCN(c2ncc(F)cn2)CC1 [Example 165, 2-[4-(5-fluoropyrimidin-2-yl)piperazin-1-yl]-N-methyl-4-[3-methyl-4-(tetrahydro-2H-pyran-4-yloxy)-1H-indazol-6-yl]benzamide]",1040 nM
7,"Cc1n[nH]c2cc(-c3ccc(C#N)c(N4CCN(CC(F)(F)F)CC4)c3)cc(OC3CCOCC3)c12 [Example 156, 4-[3-methyl-4-(tetrahydro-2H-pyran-4-yloxy)-1H-indazol-6-yl]-2-[4-(2,2,2-trifluoroethyl)piperazin-1-yl]benzonitrile]",29.1 nM
8,"CNC(=O)c1ccc(-c2cc(O[C@@H](C)C(F)(F)F)c3c(N)n[nH]c3c2)cc1N1CCN(C2CCCC2)CC1 [Example 44, 4-(3-amino-4-{[(2S)-1,1,1-trifluoropropan-2-yl]oxy}-1H-indazol-6-yl)-2-(4-cyclopentylpiperazin-1-yl)-N-methylbenzamide]",25.3 nM
9,"CNC(=O)c1ccc(-c2cc(O[C@H](C)C(F)(F)F)c3c(N)n[nH]c3c2)cc1OCCOc1ccccc1 [Example 106, 4-(3-amino-4-{[(2R)-1,1,1-trifluoropropan-2-yl]oxy}-1H-indazol-6-yl)-N-methyl-2-(2-phenoxyethoxy)benzamide]",2.67 nM
10,"NC(=O)c1ccc(-c2cc(OC3CCCC3)c3c(N)n[nH]c3c2)cc1N1CCN(C(=O)C2CC2)CC1 [Example 81, 4-[3-amino-4-(cyclopentyloxy)-1H-indazol-6-yl]-2-[4-(cyclopropylcarbonyl)piperazin-1-yl]benzamide]",17.4 nM
11,"CNC(=O)c1ccc(-c2cc(O[C@@H](C)C(F)(F)F)c3c(N)n[nH]c3c2)cc1N1CCN(c2cccnc2)CC1 [Example 41, 4-(3-amino-4-{[(2S)-1,1,1-trifluoropropan-2-yl]oxy}-1H-indazol-6-yl)-N-methyl-2-[4-(pyridin-3-yl)piperazin-1-yl]benzamide]",29.2 nM

# Further molecules by falling IC50, results first:
row,IC50,SMILES
1,2240 nM,"NC(=O)c1ccc(-c2ccc3c(N)n[nH]c3c2)cc1N1CCN(C2CCCCC2)CC1 [Example 85, 4-(3-amino-1H-indazol-6-yl)-2-(4-cyclohexylpiperazin-1-yl)benzamide]"
2,1040 nM,"Cc1n[nH]c2cc(-c3ccc(C(N)=O)c(N4CC5(CN(CC(F)(F)F)C5)C4)c3)cc(OC3CCOCC3)c12 [Example 166, 4-[3-methyl-4-(tetrahydro-2H-pyran-4-yloxy)-1H-indazol-6-yl]-2-[6-(2,2,2-trifluoroethyl)-2,6-diazaspiro[3.3]hept-2-yl]benzamide]"
3,251 nM,"CC(Oc1cc(-c2ccc(C(=O)NC3CC3)c(N3CCN(C4CC4)CC3)c2)cc2[nH]nc(N)c12)C(F)(F)F (centres unmarked) [Example 27, 4-{3-amino-4-[(1,1,1-trifluoropropan-2-yl)oxy]-1H-indazol-6-yl}-N-cyclopropyl-2-(4-cyclopropylpiperazin-1-yl)benzamide]"
4,135 nM,"CNC(=O)c1ccc(-c2cc(O[C@H](C)C(F)(F)F)c3c(N)n[nH]c3c2)cc1N1CCC(C2CCCCC2)CC1 [Example 61, 4-(3-amino-4-{[(2R)-1,1,1-trifluoropropan-2-yl]oxy}-1H-indazol-6-yl)-2-(4-cyclohexylpiperidin-1-yl)-N-methylbenzamide]"
5,121 nM,"CNC(=O)c1ccc(-c2cc(O[C@H](C)C(F)(F)F)c3c(N)n[nH]c3c2)cc1N1CCN(c2cnccn2)CC1 [Example 55, 4-(3-amino-4-{[(2R)-1,1,1-trifluoropropan-2-yl]oxy}-1H-indazol-6-yl)-N-methyl-2-[4-(pyrazin-2-yl)piperazin-1-yl]benzamide]"
6,110 nM,"CC(=O)c1ccc(-c2cc(OC3CCOCC3)c3c(N)n[nH]c3c2)cc1N1CCN(C2CC2)CC1 [Example 14, 1-{4-[3-amino-4-(tetrahydro-2H-pyran-4-yloxy)-1H-indazol-6-yl]-2-(4-cyclopropylpiperazin-1-yl)phenyl}ethanone]"
7,101 nM,"CNC(=O)c1ccc(-c2cc(O[C@H](C)C(F)(F)F)c3c(N)n[nH]c3c2)cc1N1CCN(C(=O)C(C)(C)C)CC1 [Example 54, 4-(3-amino-4-{[(2R)-1,1,1-trifluoropropan-2-yl]oxy}-1H-indazol-6-yl)-2-[4-(2,2-dimethylpropanoyl)piperazin-1-yl]-N-methylbenzamide]"
8,44.4 nM,"CNC(=O)c1ccc(-c2cc(O[C@H](C)C(F)(F)F)c3c(N)n[nH]c3c2)cc1N1CCN(C2CCCC2)CC1 [Example 53, 4-(3-amino-4-{[(2R)-1,1,1-trifluoropropan-2-yl]oxy}-1H-indazol-6-yl)-2-(4-cyclopentylpiperazin-1-yl)-N-methylbenzamide]"
9,39.8 nM,"Cc1n[nH]c2cc(-c3ccc(C(=O)NC4CCC4)c(N4CCN(C5CCCCC5)CC4)c3)cc(OC3CCOCC3)c12 [Example 118, N-cyclobutyl-2-(4-cyclohexylpiperazin-1-yl)-4-[3-methyl-4-(tetrahydro-2H-pyran-4-yloxy)-1H-indazol-6-yl]benzamide]"
10,32.8 nM,"CCNC(=O)c1ccc(-c2cc(OC3CCOCC3)c3c(C)n[nH]c3c2)cc1N1CCN(c2ccccc2)CC1 [Example 115, N-ethyl-4-[3-methyl-4-(tetrahydro-2H-pyran-4-yloxy)-1H-indazol-6-yl]-2-(4-phenylpiperazin-1-yl)benzamide]"
11,27 nM,"CC(Oc1cc(-c2ccc(C(N)=O)c(N3CCN(C4CCCCC4)CC3)c2)cc2[nH]nc(N)c12)C(F)(F)F (centres unmarked) [Example 93, 4-{3-amino-4-[(1,1,1-trifluoropropan-2-yl)oxy]-1H-indazol-6-yl}-2-(4-cyclohexylpiperazin-1-yl)benzamide]"
12,21.5 nM,"CNC(=O)c1ccc(-c2cc(OC3CCOCC3)c3c(C)n[nH]c3c2)cc1N1CCN(Cc2ccccc2)C(=O)C1 [Example 159, 2-(4-benzyl-3-oxopiperazin-1-yl)-N-methyl-4-[3-methyl-4-(tetrahydro-2H-pyran-4-yloxy)-1H-indazol-6-yl]benzamide]"
13,17.8 nM,"CNC(=O)c1ccc(-c2cc(OC3CCOCC3)c3c(N)n[nH]c3c2)cc1N1CCN(CC(F)(F)C(F)(F)F)CC1 [Example 170, 4-[3-amino-4-(tetrahydro-2H-pyran-4-yloxy)-1H-indazol-6-yl]-N-methyl-2-[4-(2,2,3,3,3-pentafluoropropyl)piperazin-1-yl]benzamide]"
14,8.62 nM,"CNC(=O)c1ccc(-c2cc(OC3CCOCC3)c3c(C)n[nH]c3c2)cc1N1CCN(C(=O)CC2CC2)CC1 [Example 164, 2-[4-(cyclopropylacetyl)piperazin-1-yl]-N-methyl-4-[3-methyl-4-(tetrahydro-2H-pyran-4-yloxy)-1H-indazol-6-yl]benzamide]"
15,2.93 nM,"NC(=O)c1ccc(-c2cc(O[C@H]3CCOC3)c3c(N)n[nH]c3c2)cc1N1CCN(c2ccccc2)CC1 [Example 66, 4-{3-amino-4-[(3S)-tetrahydrofuran-3-yloxy]-1H-indazol-6-yl}-2-(4-phenylpiperazin-1-yl)benzamide]"
